Data published in PubChem BioAssay AID743417 (Broad Institute, 2014).
Several values for one entry are separate records, joined by “and”; a condition that tells them apart may be missing. Equal entries are not always repeated. Records with an inconclusive call do not appear. Activity calls are given as the source filed them.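 Rule for the calls: active = compounds lowering the luciferase signal with a fitted half-maximal dose at most twice their top valid dose (cut at about 30 µM in these data); inconclusive = flat fits with moderate signal loss, or poor fits; inactive = the rest.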

System: Clone20 osteoblast Shn3 3'UTR firefly luciferase, 24 h
Assay: Shn3 3'UTR reporter inhibitors, dose response, cell-based, Clone20 osteoblasts, luminescence, dry powder, set 2 (AID 743417)

| SMILES | AC50 |
| --- | --- |
| Cc1cccc(/C=C(\c2nc3ccccc3[nH]2)S(=O)(=O)c2ccccc2)c1 | 4.5 µM |
| O=C(CSc1ccccn1)Nc1nonc1[N+](=O)[O-] | 5 µM |
| Cc1cc(Br)c2c(c1)/C(=C/C(=O)c1cccs1)C(=O)N2 | 19.9 µM |
| CS(=O)(=O)c1ccc(C(=O)OCC(=O)N2CCOCC2)cc1[N+](=O)[O-] | 17.5 µM |
| CC(=O)OCC(=O)[C@@]1(O)CC[C@H]2[C@@H]3CCC4=CC(=O)CC[C@]4(C)[C@H]3C(=O)C[C@@]21C | 28.3 µM |
| CCN1CCN(Cc2ccc(NC(=O)c3ccc(C)c(NC(=O)c4c[nH]c5cc(C(F)(F)F)ccc5c4=O)c3)cc2C(F)(F)F)CC1 | 3.13 µM |
| COc1cccc(C2CC(c3ccc(C)cc3)=NN2C(=O)c2ccccc2F)c1OC (stereo not drawn) | 36 µM |
| COCCN(C(=O)COC(=O)C1CCC(C(C)(C)C)CC1)c1c(N)n(Cc2ccccc2)c(=O)[nH]c1=O (stereo not drawn) | 5.15 µM |
| COc1ccccc1NC(=O)Cn1cc(C(=O)C2CC2)c2ccccc21 | 4.76 µM |
| CN(C)CCNC(=O)c1ccc(Cl)c2cc3ccccc3nc12 | 9.85 µM |
| CCCOC(=O)c1ccc(OCC(O)Cn2c(C)nc3ccccc32)cc1 (stereo not drawn) | 0.62 µM |
| CC(C)(C)C(=O)Cn1ncc(Br)c(Br)c1=O | 9.51 µM |
| O=C1CC(c2ccccc2)CC(O)=C1C=Nc1cccc(Cl)c1 (stereo not drawn) | 4.94 µM |
| CCCCNc1cccc2c1S(=O)(=O)N(CCCC)CC(COCc1ccccc1)O2 (stereo not drawn) | 8.93 µM |
| CCCn1c(NC(=O)c2ccc(Cl)c(S(=O)(=O)N3CCCC3)c2)nc2ccccc21 | 8.39 µM |
| CCOC(=O)CS(=O)(=O)c1nc(-c2ccccc2)cc(C(F)(F)F)n1 | 3.42 µM |
| CC(C)(C)c1cc(C(=O)N/N=C/c2ccccc2O)n(-c2ccccc2)n1 | 2.25 µM |
| CCCN(CCC)S(=O)(=O)c1ccc(C(=O)Nc2nnc(-c3cc(OC)cc(OC)c3)o2)cc1 | 2.64 µM |
| N#Cc1ccc(NC(=O)Nc2ccc(Oc3ccc(NC(=O)Nc4ccc(C#N)cc4)cc3)cc2)cc1 | 2.68 µM |
| Cc1ccc(Nc2c(-c3ccccn3)nc3cc(C)ccn23)cc1 | 1.36 µM |
| Cc1nn(Cc2ccc(Cl)cc2)c(C)c1NC(=O)c1cc(C(C)C)on1 | 6.2 µM |
| Cc1ccc(-c2ccc(/C=C3\C(=O)ON=C3c3ccccc3)o2)c([N+](=O)[O-])c1 | 3.3 µM |
| CCCCC(=O)NC(c1ccc(N(CC)CC)cc1)c1ccc2cccnc2c1O (stereo not drawn) | 1.12 µM |
| Cc1ccc(CC(=O)Nc2ccncc2)cc1 | 2.39 µM |
| O=C1ON=C(c2ccccc2)/C1=C/c1ccc(-c2ccccc2[N+](=O)[O-])o1 | 7.21 µM |
| COc1ccc2c(CC(=O)OCC(=O)N(C)c3c(N)n(Cc4ccccc4)c(=O)[nH]c3=O)coc2c1 | 21.2 µM |

| SMILES | AC50 |
| --- | --- |
| O=C(c1cc(COc2ccc3ncccc3c2)on1)N1CCCCCC1 | 0.703 µM |
| CN(C)CCCNc1c2ccccc2nc2ccccc12 | 3.22 µM |
| O=C(Nc1ccc(S(=O)(=O)N2CCN(Cc3ccccc3)CC2)cc1)c1cnccn1 | 1.65 µM |
| Cc1nc([N+](=O)[O-])c(Br)n1CC(=O)c1ccc2ccccc2c1 | 10.7 µM |
| Cn1c(=O)c2c(nc(NCc3ccco3)n2CCc2ccccc2)n(C)c1=O | 2.34 µM |
| CCCc1nnc(NC(=O)c2nc(S(=O)(=O)Cc3cccc(C)c3)ncc2Cl)s1 | 2.55 µM |
| C[C@H]1CCC/C=C/[C@@H]2C[C@H](O)C[C@H]2[C@H](O)/C=C/C(=O)O1 | 3.15 µM and 2.2 µM |
| C=C1C(=O)C23C(O)C1CCC2C12COC3(O)C(O)C1C(C)(C)CCC2O (stereo not drawn) | 3.3 µM |
| O=C(NCc1cccnc1)/C(=C/c1ccc(-c2ccc(Cl)cc2)o1)S(=O)(=O)c1ccccc1 | 5.35 µM |
| CCn1c(=O)c(C(=O)Nc2nc3ccccc3[nH]2)c(O)c2ccccc21 | 6.01 µM |
| COc1ccc(OC)c2sc(N(CCN(C)C)C(=O)/C=C/c3cccs3)nc12 | 12.7 µM |
| Cc1ccc(S(=O)(=O)N2[C@H](c3cccc(Cl)c3)CC(=O)[C@@H]3CN(S(=O)(=O)c4ccccc4C)[C@H](c4ccc(Cl)cc4)C[C@@H]32)cc1 | 0.289 µM |
| CCOc1ccc2nc3cc(NCc4ccc(OC)cc4)ccc3c(N)c2c1 | 6.69 µM |
| Cc1ccn2cc(-c3ccc(O)c(O)c3)nc2c1 | 2.44 µM |
| COc1ccc(CCNc2ncnc3sc(C)cc23)cc1OC | < 0.26 µM |
| Cc1ccc(CNC(=O)c2ccc3c(=O)c(O)c(-c4ccc(C)cc4)[nH]c3c2)cc1 | 2.82 µM |
| CCOC(=O)N1CCN(c2ccc(S(=O)(=O)N(Cc3ccccc3)Cc3ccccc3)cn2)CC1 | 2.59 µM |
| Oc1c(Cl)cc(CN2CCOCC2)c2cccnc12 | 2.43 µM |
| C=C1CC(Cn2cc(Br)c(=O)[nH]c2=O)(c2ccc(-c3ccccc3)cc2)OC1=O (stereo not drawn) | 2.67 µM |
| O=C(N[C@@H]1C/C=C\C[C@@H](CC(=O)N(CCO)Cc2ccccc2)C(=O)NC[C@H](c2ccccc2)OC1=O)OCC1c2ccccc2-c2ccccc21 | 7.04 µM |
| O=C(c1ccc(Br)cc1)C(CN1CCOCC1)c1ccccc1 (stereo not drawn) | 9.4 µM |
| C=C(CN(C)C)C(=O)c1ccc(C)cc1C | 0.77 µM |
| O=c1c2ccccc2sc2ccc(C#CC3(O)CCCCC3)cc12 | < 0.26 µM |
| C=CCSc1nc2ccccc2n1C(=O)/C=C/c1ccc(OC)c(OC)c1 | 1.31 µM |
| NC(c1csc(NC(=O)Nc2cccc(C(F)(F)F)c2)n1)C1CCCCC1 (stereo not drawn) | 4.81 µM |
| Cc1cccc(CCN2C(N(C)C)=NC[C@@H]2CC(C)C)c1 | 1.45 µM |

| SMILES | AC50 |
| --- | --- |
| COc1cc2cc(C(=O)N3CC(COS(C)(=O)=O)c4ccc(O)cc43)[nH]c2c(OC)c1OC (stereo not drawn) | < 0.26 µM |
| O=S(=O)(c1cccs1)N1CCN(CCOc2ccc(Cl)cc2)CC1 | 13.8 µM |
| CCc1nc(N2CCN(C(C)=O)CC2)c2c3c(sc2n1)CC(C(C)(C)C)CC3 (stereo not drawn) | 6.76 µM |
| Cc1nc2scc(C)n2c(=O)c1S(=O)(=O)Nc1ccc(N2CCOCC2)c(Cl)c1 | 1.67 µM |
| Cc1ccc(-n2nnnc2C(Cl)(Cl)c2nnnn2-c2ccc(C)cc2)cc1 | 4.71 µM |
| CC(=O)N1CCOc2cc(S(=O)(=O)NCc3ccc(F)cc3)c(C)cc21 | > 70 µM (inactive) |
| c1ccc2c(-c3[nH]ncc3CNCCCn3ncc4ccccc43)cccc2c1 | 3.25 µM |
| CC(C)c1nnc(NC(=O)c2nc(S(=O)(=O)Cc3ccccc3)ncc2Cl)s1 | 0.876 µM |
| COc1ccc(OCC(O)CNCCOc2ccccc2OC)c(C(C)(C)C)c1 (stereo not drawn) | 11.6 µM |
| Cc1cc(C(=O)COc2cccnc2[N+](=O)[O-])c(C)n1-c1ccccc1 | 34.8 µM |
| O=C(Nc1ccc([N+](=O)[O-])cc1)Nc1ccc(OC(F)F)c(Cl)c1 | 3.59 µM |
| CCC1CCCCN1S(=O)(=O)c1ccc(NC(=O)c2ccncc2)cc1 (stereo not drawn) | 3.43 µM |
| C=CCN(c1ccccc1)S(=O)(=O)c1cccc(C(=O)Nc2nc3ccccc3[nH]2)c1 | 10.1 µM |
| COCC1CCCCN1C(=O)c1cc(COc2ccc3ncccc3c2)on1 (stereo not drawn) | 0.33 µM |
| Cc1ccc2cc(CN(CC3CCCO3)C(=O)NC3CCCCC3)c(=O)[nH]c2c1C (stereo not drawn) | 4.49 µM |
| CS(=O)(=O)c1ccc(C(=O)OCC(=O)N2CCN(CCC3CCCCC3)CC2)cc1[N+](=O)[O-] | 2.41 µM |
| Cc1cc(F)ccc1S(=O)(=O)Nc1ccccc1C(=O)Nc1ccccc1-c1nc2ccccc2[nH]1 | 12.1 µM |
| Cc1ccc(C(=O)Nc2nc(-c3ccccn3)cs2)cc1S(=O)(=O)N1CCOCC1 | 0.838 µM |
| Nc1nc(N)c2cc(S(=O)(=O)c3ccc4ccccc4c3)ccc2n1 | 3.37 µM |
| O=C(N[C@@H]1C/C=C\C[C@H](CC(=O)N(CCO)Cc2ccccc2)C(=O)NC[C@@H](c2ccccc2)OC1=O)OCC1c2ccccc2-c2ccccc21 | 4.5 µM |
| COc1ccc(OC)c(NC(=O)COC(=O)c2c3c(nc4ccccc24)CCCC3)c1 | 8.67 µM |
| COc1ccc(CNC(=O)C(c2ccc(C)cc2)N(Cc2cccs2)C(=O)c2ccc3c(c2)OCCO3)cc1 (stereo not drawn) | 8.1 µM |
| C[C@@H]1COC(=O)[C@@H](NC(=O)OCC2c3ccccc3-c3ccccc32)C/C=C\C[C@@H](CC(=O)N(CCO)Cc2ccccc2)C(=O)N1 | 1.89 µM |
| CC1=NOC(=O)/C1=C\c1ccc(-c2ccccc2Br)o1 | 6.48 µM |
| CCc1ccc(Nc2n[n+](-c3ccccc3)c(-c3c(Cl)cccc3Cl)s2)cc1 | 5.4 µM |
| CSc1nc(N2CCN(Cc3ccc4c(c3)OCO4)CC2)c2ccccc2n1 | 24.1 µM |

| SMILES | AC50 |
| --- | --- |
| CCC(=O)OCCNc1cc(Sc2nc3ccccc3[nH]2)c2nonc2c1[N+](=O)[O-] | 1.09 µM |
| Cc1cccc(CS(=O)(=O)c2ncc(Cl)c(C(=O)Nc3nnc(C(C)C)s3)n2)c1 | 1.62 µM |
| O=S(=O)(c1ccccc1)N1CCN(c2cc(-c3ccccc3)nc3ncnn23)CC1 | 1.12 µM |
| C=CCn1c(-c2ccc(S(=O)(=O)N3CCOCC3)cc2)csc1=Nc1ccccc1 | 1.52 µM |
| CCn1cc(CN(C)S(=O)(=O)c2ccc3ccccc3c2)c(C)n1 | 1.56 µM |
| Cc1ccc(NC(=O)C2CCN(S(=O)(=O)c3ccc(N4CCCC4=O)cc3)CC2)cc1Cl | 0.549 µM |
| COc1ccccc1CNc1nc(Nc2cccc(-c3cnco3)c2)c2sccc2n1 | 5.61 µM |
| CC(=O)NC(c1ccc(Cl)cc1Cl)c1ccc2cccnc2c1O (stereo not drawn) | 0.465 µM |
| CCCC(=O)N1CCN(c2ccc(NC(=O)c3cc4ccccc4o3)cc2Cl)CC1 | 4.1 µM |
| CCC(=O)OCCNc1cc(Sc2nccn2C)c2nonc2c1[N+](=O)[O-] | 1.55 µM |
| Cc1cc(C)c2nc(NNC(=O)c3ccc(S(=O)(=O)N4CCc5ccccc5C4)cc3)sc2c1 | 1.98 µM |
| O=C(/C=C/c1cccc([N+](=O)[O-])c1)n1cnc2ccccc21 | 0.594 µM |
| O=c1oc2ccccc2c(Cl)c1CN1CCCCC1 | 4.99 µM |
| CCCOC(=O)c1[nH]c2c(c1C)C(=O)CC(c1cc(OC)c(OC)c(OC)c1)C2 (stereo not drawn) | 1.92 µM |
| CCCCCCn1c(NCC)nc2c1c(=O)n(C)c(=O)n2C | 0.834 µM |
| CCc1nnc(NC(=O)c2nc(S(=O)(=O)Cc3ccc(C)cc3)ncc2Cl)s1 | 3.01 µM |
| O=C(Nc1nc(-c2ccccc2)cs1)c1ccc(N2CCOCC2)c([N+](=O)[O-])c1 | 3.75 µM |
| COc1cc(C(=O)NC2CCCc3c2cnn3-c2ccccc2F)cc(OC)c1OC (stereo not drawn) | 0.781 µM |
| C=CCOC(=O)c1[nH]c2c(c1C)C(=O)CC(c1cc(OC)c(OC)c(OC)c1)C2 (stereo not drawn) | 1.83 µM |
| O=C(NCCc1ccccc1)c1ccc2c(c1)OCCO2 | 2.16 µM |
| c1ccc(-c2cc3nc(NCC4CC4)nc(NCC4CCCCC4)c3s2)cc1 | 2.67 µM |
| O=C(Nc1ccc(Cc2ccncc2)cc1)c1ccc([N+](=O)[O-])o1 | 2.71 µM |
| Cc1ccc(OCCN2CCN(c3ncnc4sc(C)c(C)c34)CC2)cc1 | 0.754 µM |
| Cn1c(/C=C/c2ccc(Cl)cc2Cl)c([N+](=O)[O-])c(=O)n(C)c1=O | 6.87 µM |
| O=C1OC[C@H](Cc2ccc3c(c2)OCO3)/C1=C\c1ccc2c(c1)OCO2 | 2.66 µM |
